# Source: patent publication US6696436B1, “B-homoestra-1,3,5(10)-trienes as modulators of tubulin polymerization” (The United States of America as represented by the …, priority 1999, dated 2004)
# “Also recorded” adds a separate entry of the source.
# Tests used:
# tubulin [1] = system: T1, tubulin; assay: Enhancement of glutamate- or MAP-induced tubulin assembly, turbidimetric curves (FIGS. 4 and 5); type: biochemical
# T1 construct: Activity in room temperature assay; other: no polymerization in the absence of drug; other: GTP-only system, critical concentrations
# Experimental: In those cases where acceleration of tubulin polymerization is observed, an IC50 value for inhibition of polymerization is of course not derivable. Results for such compounds may be presented in the form of turbidimetric curves, e.g. as presented in FIGS. 4 and 5 for representative compounds 13 and 18.
# FIG. 4: Each reaction mixture contained 0.8 M glutamate (pH 6.6), 0.4 mM GTP, 12 μM (1.2 mg/ml) tubulin, 4% (v/v) dimethyl sulfoxide, and compound 13 or 18 as indicated. Baselines were established at 0°, and at time zero the temperature controller was set at 26°. At the time indicated by the dashed line, the temperature controller was set at 0°. A. Curve 1, no drug; curve 2, 2 μM compound 13; curve 3, 5 μM 7; curve 4, 10 μM 7; curve 5, 40 μM 7; curve 6, 40 μM 14. B. Curve 1, no drug; curve 2, 2 μM compound 18; curve 3, 5 μM 18; curve 4, 10 μM 18; curve 5, 40 μM 18.
# FIG. 5: Each reaction mixture contained 0.1 M Mes (pH 6.9 with NaOH in 0.5 M stock solution), 0.1 mM GTP, 10 μM (1.0 mg/ml) tubulin, 0.75 mg/ml heat-treated MAPs, 4% dimethyl sulfoxide, and drug as indicated. […] There was no change in turbidity in any reaction mixture. At this point the temperature controller was set at 10°, and subsequent temperature changes, as indicated, were made at the times indicated by the vertical dashed lines. Curve 1, no drug; curve 2, 10 μM paclitaxel; curve 3, 10 μM compound 13; curve 4, 20 μM 7; curve 5, 40 μM 7; curve 6, 10 μM compound 18.
# tubulin [2] = system: T1, tubulin; assay: as above; type: biochemical; remark: listed apart in the source
# tubulin [3] = system: T1, tubulin; assay: Room temperature tubulin assembly assay (favorable reaction conditions, glutamate-dependent); type: biochemical; conditions: no polymerization in the absence of drug
# Experimental: Previous observations with paclitaxel analogs indicate that differences between compounds are magnified in restrictive reaction conditions and minimized in favorable reaction conditions. […] However, under favorable reaction conditions (room temperature) the quantitative difference between paclitaxel and sarcodictyin A was only 2.5-fold. […] The critical concentration with 10 μM sarcodictyin A under the reaction conditions shown in FIG. 6B is 1.0 mg/ml in the GTP-only system.
# tubulin [4] = system: T2, tubulin; assay: Tubulin polymerization inhibition in vitro (turbidity at 350 nm); type: biochemical
# T2 construct: other: 1.0 M glutamate, 10 μM tubulin; Effect on tubulin polymerization / microtubule assembly
# Experimental: Microtubule assembly is followed in a temperature controlled recording spectrophotometer. For details and a discussion, see R. D'Amato et al., Proc Natl Acad Sci USA, 91:3964-3968 (1994).
# A typical reaction mixture, which will have a final reaction volume of […], contains 1.0 M monosodium glutamate (pH 6.6), 1.0 mg/ml (10 μM) tubulin, 1.0 MM MgCl2, 4% (v/v) dimethylsulfoxide, and a compound to be tested at the desired concentration (typically 0.1 to 100 μM). The reaction mixtures are incubated for 15 min. at 37° C. and then chilled on ice. After addition of 10 μl 12.5 mM GTP (and, optionally, 0.33 mg/ml microtubule-associated proteins, or MAPs) to initiate polymerization, each reaction mixture is transferred to a cuvette at 0° C., and a baseline established. At time zero, the temperature controller of the spectrophotometer is set to a target temperature, typically between 25 and 37° C. Microtubule assembly is monitored by observing an increase in turbidity at 350 nm as the temperature of the reaction mixture rises to the set target temperature.
# The results are presented in Table 1 as IC50 values (μM) for inhibition of tubulin polymerization. Alternatively, inhibition of microtubule assembly can be detected by transmission electron microscopy, as described in U.S. Pat. No. 5,504,074 which is hereby incorporated by reference in its entirety.
# tubulin polymer [5] = assay: Inhibition of [3H]paclitaxel binding to tubulin polymer
# tubulin [6] = system: T1, tubulin; assay: Polymer morphology by electron microscopy; type: biochemical
# Text: It was possible that compounds 13 and 18 were not actually acting like paclitaxel in enhancing microtubule assembly and in stabilizing the microtubules formed in the course of the turbidity studies shown in FIG. 4, but that these agents were causing formation of polymers of aberrant morphology and temperature stability different from microtubules, such as occurs with vinca alkaloids. Polymer morphology was examined by electron microscopy. […] Even more important, when the reaction mixtures were returned to 0° C. for 15 min, no microtubules were visualized on grids prepared from the reaction mixture without drug.
# tubulin [7] = system: T1, tubulin; assay: Critical concentration of tubulin for assembly, turbidimetric (FIG. 6); type: biochemical; conditions: for Critical concentration of tubulin, GTP-dependent, MAP-independent assembly: no MAPs
# Experimental: FIG. 6 presents critical concentrations, obtained at 30° C., of tubulin with paclitaxel and compound 13. A: MAPs -and GTP-dependent assembly without drug and in the presence of 10 μM paclitaxel or 10 μM 13. B: GTP-dependent, MAP-independent assembly with 10 μM paclitaxel or 10 μM 13.
# Measurement of the critical concentration with and without MAPs with paclitaxel, and again with 13, was therefore carried out to provide some idea of the comparative activity of these agents. The data are presented in FIG. 6, which yield critical concentrations, obtained at 30° C., of 1.4, 0.06, and 0.50 mg/ml for MAP-and GTP-dependent assembly without drug and in the presence of 10 μM paclitaxel or 10 μM 13, respectively, and 0.20 and 1.4 mg/ml for GTP-dependent, MAP-independent assembly with 10 μM paclitaxel or 10 μM 13. […] (A constant weight ratio of MAPs to tubulin of 1:3 was used, because the suboptimal concentration of MAPs caused greater differences in the critical concentrations obtained.) Reaction mixtures (0.25 ml) contained 0.1 M Mes (pH 6.9), 100 μM GTP, 4% dimethyl sulfoxide, the indicated tubulin concentration (with heat-treated MAPs in 1:3 weight ratio to the tubulin, panel A only), and either 10 μM paclitaxel (▴), 10 μM compound 13 (◯), or no drug (▾). Cuvette contents were equilibrated at 0°, drugs were added, temperature was jumped to 30° (about one min), and the turbidity changes after a 20 min incubation measured.
# tubulin [8] = system: T1, tubulin; assay: Tubulin polymerization inhibition in vitro (turbidity at 350 nm); type: biochemical; set-up: key: *: Accelerates tubulin polymerization; conditions: no IC50 derivable
# tubulin polymer [9] = conditions: cited from earlier work
# tubulin [10] = system: T1, tubulin; conditions: favorable reaction conditions (room temperature); cited from earlier work
# [11] = GTP-only system, critical concentrations
Structure (SMILES),Effect on glutamate- and MAP-induced tubulin assembly (tubulin [1]),"Effect on MAP-induced tubulin assembly (tubulin [1]; 0.75 mg/ml MAPs, 1.0 mg/ml tubulin, 25° C.)",Tubulin assembly in the absence of GTP (tubulin [2]),"Assembly reaction when either MAPs or GTP was omitted (tubulin [2]; 10 μM tubulin, 40 μM compound 13 or 10 μM paclitaxel)",Activity in room temperature assay (tubulin [3]),Effect on tubulin polymerization / microtubule assembly (tubulin [4]),Inhibition of [3H]paclitaxel binding to tubulin polymer (tubulin polymer [5]),Maximal inhibition of [3H]paclitaxel binding to tubulin polymer (tubulin polymer [5]),"Microtubules formed, seen by electron microscopy (tubulin [6])",Cold stable microtubules after return to 0° C. for 15 min (tubulin [6]; 40 μM 13 or 10 μM paclitaxel),"Assembly of microtubules without MAPs (tubulin [7]; 10 μM 13, 40 μM tubulin)","Critical concentration of tubulin, MAP- and GTP-dependent assembly (tubulin [7]; 30° C., 10 μM drug, MAPs:tubulin 1:3 by weight)","Critical concentration of tubulin, GTP-dependent, MAP-independent assembly (tubulin [7]; 30° C., 10 μM drug)","Tubulin polymerization inhibition, symbol instead of IC50 (tubulin [8])",Inhibition of paclitaxel binding to tubulin polymer (tubulin polymer [9]),Quantitative difference between paclitaxel and sarcodictyin A (tubulin [10]),Activity relative to compound 13 (% more active) (tubulin [7]; [11]),Activity relative to paclitaxel (fold less active) (tubulin [7]; [11])
"CCOc1cc2c(cc1OC(C)=O)C(=O)CC[C@@H]1[C@@H]2CC[C@]2(C)[C@@H](OC(C)=O)CC[C@@H]12 [Compound 13, B-Homo-3,17β-diacetoxy-2-ethoxyestra-1,3,5(10)-triene-6-one]",paclitaxel-like properties,enhanced tubulin assembly; also recorded: significantly less than that of paclitaxel,has not been observed; also recorded: not without GTP,no reaction occurred,inactive,stimulate microtubule assembly,only minimally inhibits,about 20%,abundant microtubules were formed that were indistinguishable from those formed in the absence of drug,abundant cold stable microtubules were observed,assembly of microtubules was observed without MAPs,0.50 mg/mL,1.4 mg/mL,*,–,–,–,–
COC(=O)/C1=C/[C@@H]2[C@@H](C(C)C)CC=C(C)[C@@H]2C[C@H](OC(=O)/C=C/c2cn(C)cn2)[C@]2(C)C=C[C@@]1(O)O2 [sarcodictyin A],–,–,–,–,–,–,–,–,–,–,–,–,1.0 mg/mL,–,only weakly inhibits,2.5 fold,40%,about 5 fold
